Source: patent publication US20040180895A1, “Use of a pyridazinone derivative” (priority 2001, published 2004)

Key:
[1] = Elimination half-life of the active ingredient in man; settings: human, in vivo
Source text: The active ingredient of the invention may be administered periodically, e.g. weekly or biweekly, or daily or several times a day, depending on the patient's needs. […] Therefore, a periodical treatment, e.g. weekly, may be satisfactory.

plasma proteins = experiment: Plasma protein binding; assay type: in vitro ADME; settings: read-out: bound to plasma proteins (converted)
Source text: It is known that the favourable hemodynamic effects following intravenous administration of levosimendan are seen considerably longer than levosimendan concentrations are observed in plasma. […] However, it has also been discovered that only about 30% of the active metabolite is bound to plasma proteins whereas as much as 98% of levosimendan is bound to plasma proteins. Therefore, the active free concentration of the active metabolite in plasma is proportionally much higher than that of levosimendan.

[2] = Plasma concentrations following 24 h levosimendan infusion in heart failure patients; assay type: in vivo, human; settings: levosimendan 0.2 μg/kg/min for 24 hours; for half-life: human, plasma, intravenous, 0.2 ug/kg, FIG. 1, read-out: elimination half-life (converted)
Method: Plasma concentrations of levosimendan and its active metabolite (R)-N-[4-(1,4,5,6-tetrahydro-4-methyl-6-oxo-3-pyridazinyl)phenyl]acetamide (OR-1896) following administration of 0.2 μg/kg/min of levosimendan for 24 hours in heart failure patients are shown in FIG. 1.

[3] = tested on: congestive heart failure patients; experiment: All-cause mortality (Kaplan Meier) in congestive heart failure patients, dobutamine controlled studies; assay type: in vivo, human; settings: intravenous levosimendan 0.1-0.2 μg/kg/min for 24 hours vs dobutamine; FIG. 2

SMILES	half-life [1] [h]	fraction unbound (plasma proteins)	half-life [2] [h]	time plasma concentrations are detectable after the infusion ([2]; FIG. 1) [days]	all-cause mortality (0-14 days), Kaplan Meier survival curves [3]	plasma concentrations after discontinuation of infusion ([2]; one day after discontinuation)
CC(=O)Nc1ccc(C2=NNC(=O)CC2C)cc1 (centres unmarked) [(I), N-[4-(1,4,5,6-tetrahydro-4-methyl-6-oxo-3-pyridazinyl)phenyl]acetamide]	~72					
CC(=O)Nc1ccc(C2=NNC(=O)C[C@H]2C)cc1 [OR-1896, (R)-N-[4-(1,4,5,6-tetrahydro-4-methyl-6-oxo-3-pyridazinyl)phenyl]acetamide]		~0.7	~77	12		
C[C@@H]1CC(=O)NN=C1c1ccc(NN=C(C#N)C#N)cc1 [levosimendan]		0.02	~1.3		survival curves are clearly diverging throughout the observation period	not detectable one day after the discontinuation of infusion
